Results: publication PMC8480901 (PLoS ONE, 2021)
Where “and” joins values, the source holds several entries; their conditions need not be identical. Equal entries are not always repeated.

System: human PBMCs
Assay: LPS-induced cytokine and chemokine levels in human PBMC supernatant (Luminex, ELISA)
Assay type: cell-based
Details: for CCl2, % reduction / CXCL1 % reduction / CXCL2 % reduction / MMP9 % reduction / CCl2, Mean / CXCL1, Mean / CXCL2, Mean / MMP9, Mean / CCl2, individual value / CXCL1, individual value / CXCL2, individual value / MMP9, individual value: LPS-stimulated PBMC supernatant; for CCl2, Mean / CXCL1, Mean / CXCL2, Mean / MMP9, Mean: sample size 2; for CCl2, individual value / CXCL1, individual value / CXCL2, individual value / MMP9, individual value: single replicate
[1] = LPS-stimulated human PBMC supernatant, 0.03 µM

C=C[C@]1(C)C[C@@H](OC(=O)CS[C@@H]2CC[C@@H](N)C[C@H]2O)[C@]2(C)[C@H](C)CC[C@]3(CCC(=O)[C@H]32)[C@@H](C)[C@@H]1O [Lefamulin]
CCl2, % reduction (0.03 µM): -3.52% | CXCL1 % reduction (0.03 µM): -11% | CXCL2 % reduction (0.03 µM): -3% | MMP9 % reduction (0.03 µM): -7% | CCl2, Mean (0.03 µM): 1309 pg/mL | CXCL1, Mean (0.03 µM): 6607 pg/mL | CXCL2, Mean (0.03 µM): 5213 pg/mL | MMP9, Mean (0.03 µM): 3113 pg/mL | CCl2, individual value (0.03 µM): 1274 pg/mL and 1344 pg/mL | CXCL1, individual value (0.03 µM): 6599 pg/mL and 6616 pg/mL | CXCL2, individual value (0.03 µM): 5117 pg/mL and 5308 pg/mL | MMP9, individual value (0.03 µM): 3135 pg/mL and 3092 pg/mL | CCl2, % reduction (0.1 µM): -1% | CXCL1 % reduction (0.1 µM): -3% | CXCL2 % reduction (0.1 µM): 3% | MMP9 % reduction (0.1 µM): 6% | CCl2, Mean (0.1 µM): 1279 pg/mL | CXCL1, Mean (0.1 µM): 6126 pg/mL | CXCL2, Mean (0.1 µM): 4904 pg/mL | MMP9, Mean (0.1 µM): 2899 pg/mL | CCl2, individual value (0.1 µM): 1178 pg/mL and 1379 pg/mL | CXCL1, individual value (0.1 µM): 5750 pg/mL and 6502 pg/mL | CXCL2, individual value (0.1 µM): 4854 pg/mL and 4955 pg/mL | MMP9, individual value (0.1 µM): 2852 pg/mL and 2946 pg/mL | CCl2, % reduction (0.3 µM): -8% | CXCL1 % reduction (0.3 µM): -11% | CXCL2 % reduction (0.3 µM): -1.83% | MMP9 % reduction (0.3 µM): -13% | CCl2, Mean (0.3 µM): 1360 pg/mL | CXCL1, Mean (0.3 µM): 6577 pg/mL | CXCL2, Mean (0.3 µM): 5150 pg/mL | MMP9, Mean (0.3 µM): 3213 pg/mL | CCl2, individual value (0.3 µM): 1440 pg/mL and 1281 pg/mL | CXCL1, individual value (0.3 µM): 6950 pg/mL and 6204 pg/mL | CXCL2, individual value (0.3 µM): 5157 pg/mL and 5144 pg/mL | MMP9, individual value (0.3 µM): 3328 pg/mL and 3097 pg/mL | CCl2, % reduction (1 µM): -4.42% | CXCL1 % reduction (1 µM): -4.56% | CXCL2 % reduction (1 µM): 2.67% | MMP9 % reduction (1 µM): -10% | CCl2, Mean (1 µM): 1320 pg/mL | CXCL1, Mean (1 µM): 6222 pg/mL | CXCL2, Mean (1 µM): 4923 pg/mL | MMP9, Mean (1 µM): 3154 pg/mL | CCl2, individual value (1 µM): 1176 pg/mL and 1464 pg/mL | CXCL1, individual value (1 µM): 5695 pg/mL and 6750 pg/mL | CXCL2, individual value (1 µM): 4726 pg/mL and 5120 pg/mL | MMP9, individual value (1 µM): 3230 pg/mL and 3077 pg/mL | CCl2, % reduction (3 µM): -29% | CXCL1 % reduction (3 µM): -12% | CXCL2 % reduction (3 µM): -3.75% | MMP9 % reduction (3 µM): -3% | CCl2, Mean (3 µM): 1626 pg/mL | CXCL1, Mean (3 µM): 6685 pg/mL | CXCL2, Mean (3 µM): 5247 pg/mL | MMP9, Mean (3 µM): 3044 pg/mL | CCl2, individual value (3 µM): 1606 pg/mL and 1647 pg/mL | CXCL1, individual value (3 µM): 6614 pg/mL and 6757 pg/mL | CXCL2, individual value (3 µM): 5389 pg/mL and 5104 pg/mL | MMP9, individual value (3 µM): 3098 pg/mL and 2991 pg/mL | CCl2, % reduction (10 µM): -40% | CXCL1 % reduction (10 µM): -16% | CXCL2 % reduction (10 µM): 2.3% | MMP9 % reduction (10 µM): 13% | CCl2, Mean (10 µM): 1763 pg/mL | CXCL1, Mean (10 µM): 6870 pg/mL | CXCL2, Mean (10 µM): 4942 pg/mL | MMP9, Mean (10 µM): 2781 pg/mL | CCl2, individual value (10 µM): 1714 pg/mL and 1811 pg/mL | CXCL1, individual value (10 µM): 6794 pg/mL and 6946 pg/mL | CXCL2, individual value (10 µM): 4972 pg/mL and 4912 pg/mL | MMP9, individual value (10 µM): 2867 pg/mL and 2696 pg/mL | CCl2, % reduction (30 µM): 8% | CXCL1 % reduction (30 µM): 7% | CXCL2 % reduction (30 µM): 6% | MMP9 % reduction (30 µM): 27% | CCl2, Mean (30 µM): 1163 pg/mL | CXCL1, Mean (30 µM): 5540 pg/mL | CXCL2, Mean (30 µM): 4765 pg/mL | MMP9, Mean (30 µM): 2563 pg/mL | CCl2, individual value (30 µM): 1184 pg/mL and 1143 pg/mL | CXCL1, individual value (30 µM): 5594 pg/mL and 5487 pg/mL | CXCL2, individual value (30 µM): 4928 pg/mL and 4603 pg/mL | MMP9, individual value (30 µM): 2485 pg/mL and 2640 pg/mL | CCl2, % reduction (100 µM): 92% | CXCL1 % reduction (100 µM): 73% | CXCL2 % reduction (100 µM): 2.31% | MMP9 % reduction (100 µM): 11% | CCl2, Mean (100 µM): 141 pg/mL | CXCL1, Mean (100 µM): 1638 pg/mL | CXCL2, Mean (100 µM): 4941 pg/mL | MMP9, Mean (100 µM): 2809 pg/mL | CCl2, individual value (100 µM): 141 pg/mL | CXCL1, individual value (100 µM): 1562 pg/mL and 1715 pg/mL | CXCL2, individual value (100 µM): 4788 pg/mL and 5094 pg/mL | MMP9, individual value (100 µM): 2812 pg/mL and 2806 pg/mL | GM-CSF % reduction [1]: -7% | GM-CSF [pg/mL], Mean [1]: 705 pg/mL | GM-CSF [pg/mL], individual value [1]: 721 pg/mL and 689 pg/mL | IL-1β % reduction [1]: -4.62% | IL-1β [pg/mL], Mean [1]: 13375 pg/mL | IL-1β [pg/mL], individual value [1]: 13502 pg/mL and 13249 pg/mL | IL-6 % reduction [1]: 9% | IL-6 [pg/mL], Mean [1]: 31710 pg/mL | IL-6 [pg/mL], individual value [1]: 32710 pg/mL and 30710 pg/mL | IL-8 % reduction [1]: -7% | IL-8 [pg/mL], Mean [1]: 3113 pg/mL | IL-8 [pg/mL], individual value [1]: 3135 pg/mL and 3092 pg/mL
